Test results: US5399588A, “Naphthalenylmethyl cycloalkenone acetic acids and analogs thereof useful as aldose reductase inhibitors” (American Home Products Corporation, priority 1993, dated 1995)
One block for each compound: values may come before it.

Experiments:
[1] = system: aldose reductase; assay: In vivo Inhibition of Aldose Reductase in Galactosemic Rats; set-up: species or system male rats, Sprague-Dawley strain; conditions: four days, polyol accumulation
Text: I. In vivo Inhibition of Aldose Reductase in Galactosemic Rats
The aldose reductase inhibiting property of the compounds of this invention and the utilization of the compounds in preventing, diminishing and alleviating diabetic complications are demonstrable in experiments using galactosemic rats, see Dvornik et al., Science, 182, 1146 (1973).
(a) Four or more groups of six male rats, 50-70 g, Sprague-Dawley strain, were used. The first group, the control group, was fed a mixture of laboratory chow (rodent Laboratory Chow, Purina) and glucose at 20% (w/w %) concentration. An untreated galactosemic group was fed a similar diet in which galactose was substituted for glucose. The third group was fed a diet prepared by mixing a given amount of the test compound with the galactose containing diet. The concentration of galactose in the diet of the treated groups was the same as that for the untreated galactosemic group.
(b) After four days, the animals were killed by euthanization. Both the lens and sciatic nerve were removed, weighed and stored frozen for polyol determination.
(c) The polyol determination was performed by a modification of the procedure of M. Kraml and L. Cosyns, Clin. Biochem., 2, 373 (1969). Only two minor reagent changes were made: (a) the rinsing mixture was an aqueous 5% (w/v) trichloroacetic acid solution and (b) the stock solution was prepared by dissolving 25 mg of dulcitol in 100 mL of an aqueous trichloroacetic acid solution. [N.B.: For each experiment the average value found in the tissue from rats fed the glucose diet was subtracted from the individual values found in the corresponding tissue in galactose-fed rats to obtain the amount of polyol accumulated].

[2] = target: T1, bovine lens aldose reductase (Bos taurus, UniProt P16116); assay: In vitro Inhibition of Aldose Reductase in the Bovine Lens; type: biochemical; conditions: DL-glyceraldehyde as substrate; for inhibition at 0.04 µM: 4 × 10^-8 M; for inhibition at 10 µM: 10^-5 M; for inhibition at 1 µM: 10^-6 M
T1 construct: in the preparation of the enzyme from bovine lens; from tissue; host or cells: bovine lens
Procedure: II. In vitro Inhibition of Aldose Reductase in the Bovine Lens
The aldose reductase inhibiting effects of the compounds of formula (I) were also tested by employing an in vitro testing procedure similar to that described by S. Hayman and J. H. Kinoshita, J. Biol. Chem., 240, 877 (1965) wherein the ability of the invention compounds to inhibit bovine lens aldose reductase with DL-glyceraldehyde as the substrate was determined. In the present case the procedure of Hayman and Kinoshita was modified in that the final chromatography step was omitted in the preparation of the enzyme from bovine lens.

[3] = 100 mg/kg/day in galactose-containing diet

- inhibition at 0.04 µM [2]: 78%
SMILES: O=C(O)CC1=C(Cc2ccc3c(Br)cccc3c2)C(=O)CCC1 [Example 1, [2-(5-Bromo-naphthalen-2-ylmethyl)-3-oxo-cyclohex-1-enyl]-acetic acid]
- % Inhibition of aldose reductase [1, 3]: 68%

- inhibition at 0.1 µM ([2]; 10^-7 M): 50%
SMILES: COc1ccc2cc(CC3=C(CC(=O)O)CCCC3=O)ccc2c1Br [Example 2, [2-(5-bromo-6-methoxy-naphthalen-2-ylmethyl)-3-oxocyclohex-1-enyl] acetic acid]
- % Inhibition of aldose reductase [1, 3]: 71%

- inhibition at 0.04 µM [2]: 79%
SMILES: O=C(O)CC1=C(Cc2ccc3c(Cl)cccc3c2)C(=O)CCC1 [Example 3, [2-(5-chloro-naphthalen-2-ylmethyl)-3-oxo-cyclohex-1-enyl]-acetic acid]
- % Inhibition of aldose reductase ([1]; 105 mg/kg/day in galactose-containing diet): 52%
- % Inhibition of aldose reductase ([1]; 202 mg/kg/day in galactose-containing diet): 73%

- inhibition at 0.04 µM [2]: 62%
SMILES: O=C(O)CC1=C(Cc2ccc3c(Cl)cccc3c2)C(=O)CC1 [Example 4, [2-(5-chloro-naphthalen-2-ylmethyl)-3-oxo-cyclopen-1-enyl]-acetic acid]
- % Inhibition of aldose reductase [1, 3]: 37%

- inhibition at 10 µM [2]: 27%
SMILES: COC(=O)NC(=O)CC1=C(Cc2ccc3c(Br)cccc3c2)C(=O)CCC1 [Example 5, [[2-(5-bromo-naphthalen-2-ylmethyl)-3-oxo-cyclohex-1-enyl]acetyl]carbamic acid methyl ester]
- % Inhibition of aldose reductase [1, 3]: 45%

- inhibition at 10 µM [2]: 19%
SMILES: COC(=O)NC(=O)CC1=C(Cc2ccc3c(Cl)cccc3c2)C(=O)CC1 [Example 6, [2-[2-(5-chloro-naphthalen-2-ylmethyl)-3-oxo-cyclopent-1-enyl]-acetyl]carbamic acid methyl ester]

- inhibition at 1 µM [2]: 41%
SMILES: O=C(O)CC1=C(Cc2ccc3ccccc3c2)C(=O)CCC1 [Example 7, [2-(naphthalen-2-ylmethyl)-3-oxo-cyclohex-1-enyl]-acetic acid]

- inhibition at 0.04 µM [2]: 81%
SMILES: O=C(O)COC1=C(Cc2ccc3c(Cl)cccc3c2)C(=O)CCC1 [Example 8, [[2-(5-chloro-naphthalen-2-ylmethyl)-3-oxo-1-cyclohex-1-enyl]oxy]acetic acid]

- inhibition at 1 µM [2]: 87%
SMILES: O=C(O)COC1=C(Cc2ccc3ccccc3c2)C(=O)CCC1 [Example 9, [[2-(naphthalen-2-ylmethyl)-3-oxo-1-cyclohex-1-enyl]oxy]acetic acid]

- inhibition at 0.04 µM [2]: 86%
SMILES: O=C(O)COC1=C(Cc2ccc3c(Br)cccc3c2)C(=O)CCC1 [Example 10, [[2-(5-bromo-naphthalen-2-ylmethyl)-3-oxo-cyclohex-1-enyl]oxy]-acetic acid]

- inhibition at 0.04 µM [2]: 70%
SMILES: O=C(O)COC1=C(Cc2ccc3c(Cl)cccc3c2)C(=O)CC1 [Example 11, [[2-(5-chloro-naphthalen-2-ylmethyl)-3-oxo-cyclopent-1-enyl]oxy]-acetic acid]

- inhibition at 1 µM [2]: 61%
SMILES: O=C(O)COC1=C(Cc2ccc3ccccc3c2)C(=O)CC1 [Example 12, [[2-(2-Naphthalen-2-ylmethyl)-3-oxo-cyclopent-1-enyl]oxy]-acetic acid]

- inhibition at 10 µM [2]: 51%
SMILES: COc1ccc2c(CC3=C(CC(=O)O)CCCC3=O)cccc2c1C(F)(F)F [Example 13, [2-(6-methoxy-5-trifluoromethyl-naphthalen-1-ylmethyl)-3-oxo-cyclohex-1-enyl]-acetic acid]

- inhibition at 10 µM [2]: 84%
SMILES: COc1ccc2c(CC3=C(CC(=O)O)CCC3=O)cccc2c1C(F)(F)F [Example 14, [2-(6-Methoxy-5-trifluoromethyl-naphthalen-1-ylmethyl)-3-oxo-cyclopent-1-enyl]-acetic acid]
